Experimental data taken from article PMC8119466, “A screen of FDA-approved drugs identifies inhibitors of protein tyrosine phosphatase 4A3 (PTP4A3 or PRL-3)” (Scientific Reports, 2021).
Structures can show the parent of a compound that is named as a salt. Where two headings read alike, the source gives them in different places.

Assays:
Type in all cases: biochemical
recombinant PRL-2 = target: T1, recombinant PRL-2 (Homo sapiens, UniProt Q12974); assay: In vitro phosphatase assay (DiFMUP hydrolysis), PRL-2;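 further: PRL-2 activity read as DiFMUP hydrolysis after 20 min at room temperature with drug, enzyme first pre-reduced at 4 °C for 20 min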
T1 construct: 6xHis (N, cleaved yes); made in house; host or cells: E. coli One Shot BL21 Star
T1 sequence (Q12974 1-167): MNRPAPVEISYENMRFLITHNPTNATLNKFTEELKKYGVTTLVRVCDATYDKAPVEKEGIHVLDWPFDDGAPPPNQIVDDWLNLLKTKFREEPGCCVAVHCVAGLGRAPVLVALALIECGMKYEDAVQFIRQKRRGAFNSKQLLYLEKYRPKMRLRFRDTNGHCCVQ

recombinant PRL-1 = target: T2, recombinant PRL-1 (Homo sapiens, UniProt Q93096); assay: In vitro phosphatase assay (DiFMUP hydrolysis), PRL-1; further: test concentration or dose not given here
T2 construct: 6xHis (N, cleaved yes); made in house; host or cells: E. coli One Shot BL21 Star
T2 sequence (Q93096 1-173): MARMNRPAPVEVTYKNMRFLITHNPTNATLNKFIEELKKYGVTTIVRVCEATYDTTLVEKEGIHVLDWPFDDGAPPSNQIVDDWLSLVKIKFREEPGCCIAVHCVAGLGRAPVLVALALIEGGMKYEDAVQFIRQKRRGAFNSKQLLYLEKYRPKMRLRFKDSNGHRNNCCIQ

recombinant PRL-3 = target: T3, recombinant PRL-3 (Homo sapiens, UniProt O75365); assay: In vitro phosphatase assay (DiFMUP hydrolysis), PRL-3; further: test concentration or dose not given here
T3 construct: 6xHis (N, cleaved yes); made in house; host or cells: E. coli One Shot BL21 Star
T3 sequence (O75365 whole entry): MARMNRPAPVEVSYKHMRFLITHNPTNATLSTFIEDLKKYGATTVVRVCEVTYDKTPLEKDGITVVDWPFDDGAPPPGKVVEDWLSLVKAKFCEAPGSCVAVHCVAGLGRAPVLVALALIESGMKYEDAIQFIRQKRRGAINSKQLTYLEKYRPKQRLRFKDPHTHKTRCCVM

[1] = FDA-approved drug screen, compared to DMSO
[2] = FDA-approved drug screen, activity compared to DMSO

Structure (SMILES)	% Phosphatase Activity (compared to DMSO) PRL-2 (recombinant PRL-2; [1]) [%]	% Phosphatase Activity (compared to DMSO) PRL-1 (recombinant PRL-1; [1]) [%]	% Phosphatase Activity (compared to DMSO) PRL-3 (recombinant PRL-3; [1]) [%]	also measured
CC(=O)OCC1=C(C(=O)O)N2C(=O)[C@@H](NC(=O)Cc3cccs3)[C@H]2SC1 [Cephalothin]	91	97	82	
CC(C)(C)c1cc(C(C)(C)C)c(NC(=O)c2c[nH]c3ccccc3c2=O)cc1O [Ivacaftor (VX-770)]	87	95	77	
NC(=O)c1ncn([C@@H]2O[C@H](CO)[C@@H](O)[C@H]2O)n1 [Ribavirin]	108	105	83	
COc1ccc([C@H]2CNC(=O)C2)cc1OC1CCCC1 [S- (+)-Rolipram]	110	107	87	
CCC(NC(C)C)C(O)c1ccc(O)c(O)c1 (stereo not drawn) [Isoetharine Mesylate]	98	103	93	
OC(CCN1CCCC1)(c1ccccc1)C1CCCCC1 (stereo not drawn) [Procyclidine HCl]	118	112	95	
CC(C)[N+]1(C)[C@@H]2CC[C@H]1C[C@@H](OC(=O)C(CO)c1ccccc1)C2 (stereo partly drawn) [Ipratropium Bromide]	93	103	83	
CC(O)C(=O)O.CN1CCN(c2ccc3nc(-c4c(N)c5c(F)cccc5[nH]c4=O)[nH]c3c2)CC1 [Dovitinib (TKI258) Lactate]	70	86	85	
NCCCNCCSP(=O)(O)O [Amifostine]	108	110	114	
CC(=O)[C@H]1CC[C@H]2[C@@H]3C=CC4=CC(=O)CC[C@@]4(C)[C@@H]3CC[C@]12C [Dydrogesterone]	98	91	67	
C[C@]12CC[C@@H]3c4ccc(O)cc4CC[C@H]3[C@@H]1C[C@@H](O)[C@@H]2O [Estriol]	111	117	79	
NC[C@H](O)c1ccc(O)c(O)c1.O.O=C(O)C(O)C(O)C(=O)O [Noradrenaline bitartrate monohydrate]	120	103	88	
CC(C)[C@H]1CC[C@H](C(=O)N[C@H](Cc2ccccc2)C(=O)O)CC1 [Nateglinide]	90	92	73	
CC(C)(CO)C(O)C(=O)NCCCO (racemic) [DL-Panthenol]	91	109	82	
Cc1cccc(C)c1NC(=O)C1CCCCN1C (stereo not drawn) [Mepivacaine HCl]	104	86	87	
CC[C@H](Nc1ncnc2[nH]cnc12)c1nc2cccc(F)c2c(=O)n1-c1ccccc1 [CAL-101 (Idelalisib, GS-1101)]	104	102	77	
CC(C)(C)C#Cc1cc(N(C(=O)[C@H]2CC[C@H](C)CC2)[C@H]2CC[C@H](O)CC2)c(C(=O)O)s1 [VX-222 (VCH-222, Lomibuvir)]				% Phosphatase Activity (compared to DMSO) PRL-2 (recombinant PRL-2; [2]): 85%; % Phosphatase Activity (compared to DMSO) PRL-1 (recombinant PRL-1; [2]): 91%; % Phosphatase Activity (compared to DMSO) PRL-3 (recombinant PRL-3; [2]): 76%
CC(=O)OC1CN2CCC1CC2 (stereo not drawn) [Aceclidine HCl]	95	97	85	
CCN(CCO)CCCC(C)Nc1ccnc2cc(Cl)ccc12 (stereo not drawn) [Hydroxychloroquine Sulfate]	100	96	100	
O=C1c2cccc(O)c2C(=O)c2c(O)cccc21 [Danthron]	96	96	78	

Structure (SMILES)	% Phosphatase Activity (compared to DMSO) PRL-2 (recombinant PRL-2; [1]) [%]	% Phosphatase Activity (compared to DMSO) PRL-1 (recombinant PRL-1; [1]) [%]	% Phosphatase Activity (compared to DMSO) PRL-3 (recombinant PRL-3; [1]) [%]	also measured
Nc1ccc(C(=O)[O-])c(O)c1.[Na+] [Sodium 4-Aminosalicylate]				% Phosphatase Activity (compared to DMSO) PRL-2 (recombinant PRL-2; [2]): 119%; % Phosphatase Activity (compared to DMSO) PRL-1 (recombinant PRL-1; [2]): 90%; % Phosphatase Activity (compared to DMSO) PRL-3 (recombinant PRL-3; [2]): 69%
Cc1onc(-c2c(Cl)cccc2Cl)c1C(=O)N[C@@H]1C(=O)N2[C@@H]1SC(C)(C)[C@@H]2C(=O)O [Dicloxacillin Sodium]	121	106	85	
CC1=C(C(=O)OC(C)C)C(c2cccc([N+](=O)[O-])c2)C(C(=O)OC2CN(C(c3ccccc3)c3ccccc3)C2)=C(N)N1 (stereo not drawn) [Azelnidipine]	99	93	95	
COc1ccc2[nH]c([S+]([O-])Cc3ncc(C)c(OC)c3C)nc2c1 (stereo not drawn) [Omeprazole]	96	89	54	
COc1ccccc1Oc1c(NS(=O)(=O)c2ccc(C(C)(C)C)cc2)nc(-c2ncccn2)nc1OCCO [Bosentan Hydrate]	96	87	93	
CN(C)CCc1c[nH]c2ccc(CS(=O)(=O)N3CCCC3)cc12.O=C(O)CC(O)C(=O)O [Almotriptan Malate]	114	97	68	
NC(CO)(CO)CO [Trometamol]				% Phosphatase Activity (compared to DMSO) PRL-2 (recombinant PRL-2): 105%; % Phosphatase Activity (compared to DMSO) PRL-1 (recombinant PRL-1): 102%; % Phosphatase Activity (compared to DMSO) PRL-3 (recombinant PRL-3): 82%
CN1CCC(=C2c3ccccc3CCc3cccnc32)CC1 [Azatadine dimaleate]	108	103	84	
Cc1c(C(=O)NN2CCCCC2)nn(-c2ccc(Cl)cc2Cl)c1-c1ccc(Cl)cc1 [Rimonabant]	116	103	98	
O=c1[nH]c(=O)n([C@H]2C[C@H](O)[C@@H](CO)O2)cc1C(F)(F)F [Trifluridine]				% Phosphatase Activity (compared to DMSO) PRL-2 (recombinant PRL-2; [2]): 101%; % Phosphatase Activity (compared to DMSO) PRL-1 (recombinant PRL-1; [2]): 89%; % Phosphatase Activity (compared to DMSO) PRL-3 (recombinant PRL-3; [2]): 91%
CN[C@H]1CC[C@@H](c2ccc(Cl)c(Cl)c2)c2ccccc21 [Sertraline HCl]				% Phosphatase Activity (compared to DMSO) PRL-2 (recombinant PRL-2; [2]): 101%; % Phosphatase Activity (compared to DMSO) PRL-1 (recombinant PRL-1; [2]): 96%; % Phosphatase Activity (compared to DMSO) PRL-3 (recombinant PRL-3; [2]): 75%
Cc1cccn2c(=O)c(-c3nnn[nH]3)cnc12 [Pemirolast potassium]	301	330	195	
OCCOc1ccc(/C(=C(/CCCl)c2ccccc2)c2ccccc2)cc1 [Ospemifene]				% Phosphatase Activity (compared to DMSO) PRL-2 (recombinant PRL-2): 109%; % Phosphatase Activity (compared to DMSO) PRL-1 (recombinant PRL-1): 96%; % Phosphatase Activity (compared to DMSO) PRL-3 (recombinant PRL-3): 81%
CC(C)Cn1cnc2c(N)nc3ccccc3c21 [Imiquimod]	106	98	67	
CNC(=O)c1ccccc1Sc1ccc2c(/C=C/c3ccccn3)n[nH]c2c1 [Axitinib]	164	102	96	
CO[C@@]1(NC(=O)C(C(=O)O)c2ccc(O)cc2)C(=O)N2C(C(=O)O)=C(CSc3nnnn3C)CO[C@@H]21 (stereo partly drawn) [Moxalactam Disodium]	97	88	89	
CC(C)c1nc(CN(C)C(=O)N[C@H](C(=O)N[C@@H](Cc2ccccc2)C[C@H](O)[C@H](Cc2ccccc2)NC(=O)OCc2cncs2)C(C)C)cs1 [Ritonavir]	108	103	90	
COc1ccc(CN2CCNCC2)c(OC)c1OC [Trimetazidine dihydrochloride]				% Phosphatase Activity (compared to DMSO) PRL-2 (recombinant PRL-2; [2]): 93%; % Phosphatase Activity (compared to DMSO) PRL-1 (recombinant PRL-1; [2]): 95%; % Phosphatase Activity (compared to DMSO) PRL-3 (recombinant PRL-3; [2]): 80%
CCc1c2c(nc3ccc(OC(=O)N4CCC(N5CCCCC5)CC4)cc13)-c1cc3c(c(=O)n1C2)COC(=O)[C@]3(O)CC.Cl.O.O.O [Irinotecan HCl Trihydrate]	4207	4597	4074	
